Results published in ChEMBL document CHEMBL5360614, “Quinoline Thiourea-Based Zinc Ionophores with Antibacterial Activity” (J Med Chem, 2023).
Converted amounts (≈) assume the structure as drawn. The source made the active and inactive calls. The rule behind the calls is not given here.

Assays:
Staphylococcus aureus [1] = test: Antibacterial activity against gentamicin-and methicillin-resistant Staphylococcus aureus ATCC 33592 assessed as reduction in bacterial growth incubated for 14 to 16 hrs by microbroth dilution method; format: functional; conditions: time 14-16 hrs
Staphylococcus aureus [2] = test: (§1) Antibacterial activity against gentamicin-and methicillin-resistant Staphylococcus aureus ATCC 33592 assessed as reduction in bacterial growth incubated for 14 to 16 hrs in presence of 200 uM ZnCl2 by microbroth dilution method; format: functional; conditions: time 14-16 hrs
Staphylococcus aureus [3] = test: as §1, with “1” for “200”, “1-(2-(1H-benzo[d]imidazol-1-yl)quinolin-8-yl)-3-(3,5-bis(trifluoromethyl)phenyl)thiourea” for “ZnCl2”; format: functional; conditions: time 14-16 hrs
Staphylococcus aureus [4] = test: as §1, with “1 uM 1-(2-(1H-benzo[d]imidazol-1-yl)quinolin-8-yl)-3-(3,5-bis(trifluoromethyl)phenyl)thiourea and 100” for “200”; format: functional; conditions: time 14-16 hrs
Staphylococcus aureus [5] = test: as §1, with “of 1 uM 1-(2-(1H-benzo[d]imidazol-1-yl)quinolin-8-yl)-3-(3,5-bis(trifluoromethyl)phenyl)thiourea and” for “of”; format: functional; conditions: time 14-16 hrs
Staphylococcus aureus [6] = test: Potency index, ratio of compound MIC to compound MIC in presence of 1 uM 1-(2-(1H-benzo[d]imidazol-1-yl)quinolin-8-yl)-3-(3,5-bis(trifluoromethyl)phenyl)thiourea and 200 uM ZnCl2 for antibacterial activity against gentamicin-and methicillin-resistant Staphylococcus aureus ATCC 33592; format: functional
Staphylococcus aureus [7] = test: Antibacterial activity against Staphylococcus aureus MTCC-96 assessed as reduction in bacterial growth incubated for 14 to 16 hrs by microbroth dilution method; format: functional; conditions: time 14-16 hrs
Escherichia coli = test: Antibacterial activity against Escherichia coli MTCC 1687 assessed as reduction in bacterial growth incubated for 14 to 16 hrs by microbroth dilution method; format: functional; conditions: time 14-16 hrs
Lipid bilayer [8] = test: (§2) Induction of ionophore activity across EYPC:CHOL (8:2) large unilamellar vesicles assessed as transmembrane Zn2+ ion transport by measuring decrease in fluorescence intensity for HPTS dye at 10 uM preincubated for 3 mins followed by ZnCl2 addition and mesured after 7.5 mins by HPTS dye based fluorescence spectrophotometric analysis; conditions: filed as opener, time 10.5 min
Lipid bilayer [9] = test: as §2, with “cation” for “Zn2+ ion”, “dye” for “dye at 10 uM”, “NaCl” for “ZnCl2”; conditions: time 10.5 min
Lipid bilayer [10] = test: as §2, with “cation” for “Zn2+ ion”, “dye” for “dye at 10 uM”, “KCl” for “ZnCl2”; conditions: time 10.5 min
Lipid bilayer [11] = test: as §2, with “cation” for “Zn2+ ion”, “dye” for “dye at 10 uM”, “LiCl” for “ZnCl2”; conditions: time 10.5 min
Lipid bilayer [12] = test: as §2, with “cation” for “Zn2+ ion”, “dye” for “dye at 10 uM”, “RbCl” for “ZnCl2”; conditions: time 10.5 min
Lipid bilayer [13] = test: as §2, with “cation” for “Zn2+ ion”, “dye” for “dye at 10 uM”, “MnCl2” for “ZnCl2”; conditions: time 10.5 min
Lipid bilayer [14] = test: as §2, with “cation” for “Zn2+ ion”, “dye” for “dye at 10 uM”, “CaCl2” for “ZnCl2”; conditions: time 10.5 min
Lipid bilayer [15] = test: as §2, with “cation” for “Zn2+ ion”, “dye” for “dye at 10 uM”, “CsCl” for “ZnCl2”; conditions: time 10.5 min
Lipid bilayer [16] = test: as §2, with “cation” for “Zn2+ ion”, “dye” for “dye at 10 uM”, “MgCl2” for “ZnCl2”; conditions: time 10.5 min
Lipid bilayer [17] = test: as §2, with “cation” for “Zn2+ ion”, “dye” for “dye at 10 uM”, “CuCl2” for “ZnCl2”; conditions: filed as opener; time 10.5 min
Lipid bilayer [18] = test: as §2, with “anion” for “Zn2+ ion”, “dye” for “dye at 10 uM”, “ZnBr2” for “ZnCl2”; conditions: filed as opener; time 10.5 min
Lipid bilayer [19] = test: as §2, with “anion” for “Zn2+ ion”, “dye” for “dye at 10 uM”, “ZnSO4” for “ZnCl2”; conditions: filed as opener; time 10.5 min
Lipid bilayer [20] = test: as §2, with “anion” for “Zn2+ ion”, “dye” for “dye at 10 uM”, “Zn(NO3)2” for “ZnCl2”; conditions: filed as opener; time 10.5 min
Lipid bilayer [21] = test: as §2, with “anion” for “Zn2+ ion”; conditions: filed as opener, time 10.5 min
Staphylococcus aureus [22] = test: Antibacterial activity against Staphylococcus aureus MTCC-96 assessed as reduction in bacterial growth incubated for 14 to 16 hrs in presence of 400 uM ZnCl2 by microbroth dilution method; format: functional; conditions: time 14-16 hrs
Staphylococcus aureus [23] = test: Antibacterial activity against Staphylococcus aureus MTCC-96 assessed as reduction in bacterial growth incubated for 14 to 16 hrs in presence of EGTA by microbroth dilution method; format: functional; conditions: time 14-16 hrs
Staphylococcus aureus [24] = test: Antibacterial activity against Staphylococcus aureus MTCC-96 assessed as fold reduction in bacterial growth incubated for 14 to 16 hrs in presence of 400 uM ZnCl2 by microbroth dilution method; format: functional; conditions: time 14-16 hrs
Staphylococcus aureus [25] = test: Antibacterial activity against Staphylococcus aureus MTCC-96 assessed as reduction in bacterial growth incubated for 14 to 16 hrs in presence of 100 to 400 uM ZnBr2 by microbroth dilution method; format: functional, organism-based; conditions: time 14-16 hrs
Staphylococcus aureus [26] = test: Antibacterial activity against Staphylococcus aureus MTCC-96 assessed as reduction in bacterial growth incubated for 14 to 16 hrs in presence of 100 to 400 uM Zn(NO3)2 by microbroth dilution method; format: functional, organism-based; conditions: time 14-16 hrs
Staphylococcus aureus [27] = test: Antibacterial activity against Staphylococcus aureus MTCC-96 assessed as reduction in bacterial growth incubated for 14 to 16 hrs in presence of 100 to 400 uM ZnSO4 by microbroth dilution method; format: functional, organism-based; conditions: time 14-16 hrs
Staphylococcus aureus [28] = test: Antibacterial activity against Staphylococcus aureus MTCC-96 assessed as reduction in bacterial growth incubated for 14 to 16 hrs in presence of 100 to 400 uM CsCl by microbroth dilution method; format: functional, organism-based; conditions: time 14-16 hrs
Staphylococcus aureus [29] = test: Antibacterial activity against Staphylococcus aureus MTCC-96 assessed as reduction in bacterial growth incubated for 14 to 16 hrs in presence of 100 to 400 uM CuCl2 by microbroth dilution method; format: functional, organism-based; conditions: time 14-16 hrs
Staphylococcus aureus [30] = test: Antibacterial activity against Staphylococcus aureus MTCC-96 assessed as reduction in bacterial growth incubated for 14 to 16 hrs in presence of 100 to 400 uM CaCl2 by microbroth dilution method; format: functional, organism-based; conditions: time 14-16 hrs
Staphylococcus aureus [31] = test: Antibacterial activity against Staphylococcus aureus MTCC-96 assessed as reduction in bacterial growth incubated for 14 to 16 hrs in presence of 100 to 400 uM MnCl2 by microbroth dilution method; format: functional, organism-based; conditions: time 14-16 hrs
Staphylococcus aureus [32] = test: Antibacterial activity against Staphylococcus aureus MTCC-96 assessed as reduction in bacterial growth incubated for 14 to 16 hrs in presence of 100 to 400 uM MgCl2 by microbroth dilution method; format: functional, organism-based; conditions: time 14-16 hrs
Staphylococcus aureus [33] = test: Bactericidal activity against Staphylococcus aureus MTCC-96 at 2 times MIC incubated for 2 hrs in presence of ZnCl2 by time kill assay; format: functional, organism-based
Staphylococcus aureus [34] = test: Bactericidal activity against Staphylococcus aureus MTCC-96 at 2 times MIC incubated for 2 hrs by time kill assay; format: functional, organism-based
Staphylococcus aureus [35] = test: Bactericidal activity against Staphylococcus aureus MTCC-96 assessed as reduction in bacterial colony formation at 2 times MIC incubated upto 8 hrs in presence of ZnCl2 by agar-plate method; format: functional, organism-based
Cell membrane = test: Induction of cell membrane depolarization in Staphylococcus aureus MTCC-96 assessed as change in fluorescence intensity at 3.13 uM by DiSC3-5 dye based fluorescence method; format: subcellular
Staphylococcus aureus [36] = test: Disruption of membrane integrity in Staphylococcus aureus MTCC-96 assessed as increase in fluorescence intensity at 4 to 8 uM by PI staining based fluorescence analysis; format: functional, organism-based; conditions: dose 4-8 µM
Staphylococcus aureus [37] = test: Disruption of membrane integrity in Staphylococcus aureus MTCC-96 assessed as change in cocci shape in presence of Zn2+ ion by FE-SEM analysis; format: functional, organism-based
Staphylococcus aureus [38] = test: Antibacterial activity against Staphylococcus aureus MTCC-96 assessed as resistance development by measuring fold increase in MIC and measured after 30 days by microbroth dilution method; format: functional; conditions: time 30 day
Staphylococcus aureus [39] = test: Antibacterial activity against Staphylococcus aureus MTCC-96 assessed as resistance development by measuring fold increase in MIC and measured after 30 days in presence of ZnCl2 by microbroth dilution method; format: functional, organism-based; conditions: time 30.0 day
Erythrocyte = test: Hemolytic activity in human Red blood cells assessed as hemolysis rate at 1.6 to 50 uM incubated for 1 to 24 hrs in presence of ZnCl2 by absorbance based analysis; format: toxicity, cell-based; conditions: dose lower 1.6 µM, time lower 1 hrs, dose upper 50 µM, time upper 24 hrs
MCF-10A = test: Cytotoxicity against human MCF-10A cells assessed as reduction in cell viability at 1 to 100 uM incubated for 44 hrs by MTT assay; format: toxicity, cell-based; conditions: dose 1-100 µM
MCF7 = test: Cytotoxicity against human MCF7 cells assessed as reduction in cell viability at 1 to 100 uM incubated for 44 hrs by MTT assay; format: toxicity, cell-based; conditions: mcf7, 44 h, dose 1-100 µM
MDA-MB-231 = test: Cytotoxicity against human MDA-MB-231 cells assessed as reduction in cell viability at 1 to 100 uM incubated for 44 hrs by MTT assay; format: toxicity, cell-based; conditions: mda-mb-231, 44 h, dose 1-100 µM
A549 = test: Cytotoxicity against human A549 cells assessed as reduction in cell viability at 1 to 100 uM incubated for 44 hrs by MTT assay; format: toxicity, cell-based; conditions: a549, 44 h, dose 1-100 µM
HCT-116 = test: Cytotoxicity against human HCT-116 cells assessed as reduction in cell viability at 1 to 100 uM incubated for 44 hrs by MTT assay; format: toxicity, cell-based; conditions: hct-116, 44 h, dose 1-100 µM

## CC1(C)S[C@@H]2[C@H](NC(=O)[C@H](N)c3ccc(O)cc3)C(=O)N2[C@H]1C(=O)O [AMOXICILLIN]
Staphylococcus aureus [1]
  MIC: 17 µM (≈ 6.21 µg/mL)
Staphylococcus aureus [2]
  MIC: 17 µM
Staphylococcus aureus [3]
  MIC: 17 µM
Staphylococcus aureus [4]
  MIC: 4.09 µM
Staphylococcus aureus [5]
  MIC: 0.05 µM
Staphylococcus aureus [6]
  Ratio: 341

## FC(F)(F)c1cc(NC(=S)Nc2cccc3ccc(-n4cccc4)nc23)cc(C(F)(F)F)c1
Staphylococcus aureus [7]
  MIC: > 50 µM
Staphylococcus aureus [1]
  MIC: > 50 µM
Escherichia coli
  MIC: > 50 µM

## O=[N+]([O-])c1ccc(NC(=S)Nc2cccc3cccnc23)cc1
Staphylococcus aureus [7]
  MIC: > 25 µM
Staphylococcus aureus [1]
  MIC: > 50 µM
Escherichia coli
  MIC: > 50 µM

## FC(F)(F)c1cc(NC(=S)Nc2cccc3cccnc23)cc(C(F)(F)F)c1
Lipid bilayer [8]
  Activity: Active
Lipid bilayer [9]
  Activity: inactive
Lipid bilayer [10]
  Activity: inactive
Lipid bilayer [11]
  Activity: inactive
Lipid bilayer [12]
  Activity: inactive
Lipid bilayer [13]
  Activity: inactive
Lipid bilayer [14]
  Activity: inactive
Lipid bilayer [15]
  Activity: inactive
Lipid bilayer [16]
  Activity: inactive
Lipid bilayer [17]
  Activity: Active
Lipid bilayer [18]
  Activity: Active
Lipid bilayer [19]
  Activity: Active
Lipid bilayer [20]
  Activity: Active
Lipid bilayer [21]
  Activity: Active
Staphylococcus aureus [7]
  MIC: 3.13 µM (≈ 1.3 µg/mL)
Staphylococcus aureus [1]
  MIC: 3.13 µM (≈ 1.3 µg/mL)
Escherichia coli
  MIC: > 50 µM
Staphylococcus aureus [22]
  MIC: 0.47 µM
Staphylococcus aureus [23]
  MIC: 6.25 µM
Staphylococcus aureus [24]
  fold change (FC): 6.65
Staphylococcus aureus [25]
  Activity: Active
Staphylococcus aureus [26]
  Activity: Active
Staphylococcus aureus [27]
  Activity: Active
Staphylococcus aureus [28]
  Activity: inactive
Staphylococcus aureus [29]
  Activity: inactive
Staphylococcus aureus [30]
  Activity: inactive
Staphylococcus aureus [31]
  Activity: inactive
Staphylococcus aureus [32]
  Activity: inactive
Staphylococcus aureus [33]
  Activity: Active
Staphylococcus aureus [34]
  Activity: Active
Staphylococcus aureus [35]
  Activity: Active
Cell membrane
  Activity: inactive
Staphylococcus aureus [36]
  Activity: inactive
Staphylococcus aureus [37]
  Activity: inactive
Staphylococcus aureus [38]
  fold change (FC): 16
Staphylococcus aureus [39]
  Activity: Active
Erythrocyte
  Activity: Non-Toxic
MCF-10A
  Activity: Non-Toxic
MCF7
  Activity: Non-Toxic
MDA-MB-231
  Activity: Non-Toxic
A549
  Activity: Non-Toxic
HCT-116
  Activity: Non-Toxic

## [O-][n+]1ccccc1S [PYRITHIONE]
Staphylococcus aureus [7]
  MIC: 9.8 µM (≈ 1.25 µg/mL)

## NC[C@H]1O[C@H](O[C@H]2[C@H](O)[C@@H](O[C@H]3O[C@H](CO)[C@@H](O)[C@H](N)[C@H]3O)[C@H](N)C[C@@H]2N)[C@H](O)[C@@H](O)[C@@H]1O [KANAMYCIN]
Staphylococcus aureus [1]
  MIC: 155 µM (≈ 75.1 µg/mL)
Staphylococcus aureus [2]
  MIC: 155 µM
Staphylococcus aureus [3]
  MIC: 155 µM
Staphylococcus aureus [4]
  MIC: 6.44 µM
Staphylococcus aureus [5]
  MIC: 0.31 µM
Staphylococcus aureus [6]
  Ratio: 499

## S=C(Nc1ccccc1)Nc1cccc2cccnc12
Staphylococcus aureus [7]
  MIC: > 25 µM
Staphylococcus aureus [1]
  MIC: > 50 µM
Escherichia coli
  MIC: > 50 µM

## FC(F)(F)c1cc(NC(=S)Nc2cccc3ccc(-n4ccc5ccccc54)nc23)cc(C(F)(F)F)c1
Staphylococcus aureus [7]
  MIC: 6.25 µM (≈ 3.32 µg/mL)
Staphylococcus aureus [1]
  MIC: 6.25 µM (≈ 3.32 µg/mL)
Escherichia coli
  MIC: > 50 µM

## FC(F)(F)c1cc(NC(=S)Nc2cccc3ccc(Nc4nc5ccccc5[nH]4)nc23)cc(C(F)(F)F)c1
Staphylococcus aureus [7]
  MIC: > 50 µM
Staphylococcus aureus [1]
  MIC: > 50 µM
Escherichia coli
  MIC: > 50 µM
